# Data from patent US9758559B2, “Short peptides derived from VDAC1, compositions and methods of use thereof” (B.G. NEGEV TECHNOLOGIES AND APPLICATIONS LTD., AT …, priority 2013, dated 2017).
# Where a SMILES comes first, the peptide text is derived from it. [ ]: non-standard residue; d: D form.
# Assays:
# [1] = system: rat glioblastoma cells (C6); assay: Cell death of C6 cells, PI staining and flow cytometry; type: cell-based; settings: 6 h, serum-free medium, PI-positive cells
# Protocol: The efficacy of the peptide comprising amino acids […] of the N-terminal domain of VDAC1, synthesized with D-amino acids (all D-stereomeric peptide) conjugated to the Antp sequence also synthesized from D-amino acids as a CPP (D-Δ(1-14) N-Ter-Antp, SEQ ID NO:9) was further examined for its activity of inducing cell death with brain tumor derived cell lines. Human primary glioblastoma cells (U-87), human neuroblastoma cells (SH-SY5Y) and rat glioblastoma cells (C6) were incubated (4×10^5 cells) for 6 h in a serum-free-medium containing different concentrations of D-Δ1-14N-Ter-Antp (SEQ ID NO:9). The previously disclosed LP4 peptide conjugated to Tf (Tf-D-LP4 peptide, SEQ ID NO:20) was used as a reference of activity. At the end of the incubation time the cells were stained with PI and the level of cell death, reflected by the percentage of PI-positive cells, was determined by flow cytometry.
# MEC-1 cells = type: cell-based; settings: 90 min incubation, serum-free medium, PI staining, FACS, read-out: IC50, induction of cell death, MEC-1
# Protocol: MEC-1, MO1043 and T-Rex-293 cells were grown in DMEM supplemented with 10% FCS, 2 mM L-glutamine, 1000 U/ml penicillin and 1 mg/ml streptomycin, U-87, C6 and PC3 were maintained in RPMI 1640 supplemented with 10-20% FCS, 2 mM L-glutamine, 1000 U/ml penicillin and 1 mg/ml streptomycin. All cells were maintained in a humidified atmosphere with 5% CO2 at 37° C.
# PBMCs (4×10^5 or 8×10^5 cells/sample) were incubated in 200 μl serum-free medium with the examined peptide for 90 min at room temperature and centrifuged (500×g, 5 min) Cell death was analyzed by PI staining and flow cytometer (Beckton-Dickinson) and BD Cell Quest Pro software. Apoptotic cell death was also analyzed by PI and annexin V-FITC staining (Zaid H et al. 2005. 12:751-760), and by acridine orange and ethidium bromide staining and confocal microscopy (Olympus 1×81).
# To optimize the VDAC1 N-terminal derived peptides with respect to stability, length and specific targeting to cancer cells, several versions of these peptides were designed and tested for their efficacy in inducing the death of CLL-derived lymphocytes and MEC-1 cells (Table 3). Cells were incubated for 90 min with increasing concentrations of the indicated peptide and death was analyzed by PI stating and FACS as described hereinabove. As is clearly shown in FIG. 1 (and Table 3), deleting 6 residues from the C-terminus of the peptide, including the GXXXG motif, yielded a non-active peptide (peptide Δ(21-26) N-Ter-Antp, SEQ ID NO:22).
smiles,measurement,setting,value
"CC[C@@H](C)[C@@H](NC(=O)[C@@H](CCCCN)NC(=O)[C@H](NC(=O)[C@@H](CCC(N)=O)NC(=O)[C@@H](CCCNC(=N)N)NC(=O)[C@@H](CC(C)C)NC(=O)CNC(=O)[C@@H](Cc1ccccc1)NC(=O)CNC(=O)[C@@H](Cc1ccc(O)cc1)NC(=O)CNC(=O)[C@@H](CCCCN)NC(=O)[C@H](NC(=O)[C@@H](Cc1ccccc1)NC(=O)[C@H](NC(=O)[C@@H](CC(=O)O)NC(=O)[C@H](N)CCCNC(=N)N)C(C)C)[C@H](C)O)[C@H](C)CC)C(=O)N[C@H](Cc1c[nH]c2ccccc12)C(=O)N[C@H](Cc1ccccc1)C(=O)N[C@H](CCC(N)=O)C(=O)N[C@H](CC(N)=O)C(=O)N[C@H](CCCNC(=N)N)C(=O)N[C@H](CCCNC(=N)N)C(=O)N[C@H](CCSC)C(=O)N[C@H](CCCCN)C(=O)N[C@H](Cc1c[nH]c2ccccc12)C(=O)N[C@H](CCCCN)C(=O)N[C@H](CCCCN)C(=O)O [D-Δ(1-14) N-Ter-Antp, ALL D-RDVFTKGYGFGL RQIKIWFQNRRMKWKK] (H-[dR][dD][dV][dF][dT][dK]G[dY]G[dF]G[dL][dR][dQ][dI][dK][dI][dW][dF][dQ][dN][dR][dR][dM][dK][dW][dK][dK]-OH)",IC50,[1],5.3 µM
same,IC50,MEC-1 cells,2.1 ± 0.3 µM
